Like-named read-outs stand apart in the source and are kept apart here.
Experiments:
[1] = test system: Hh signaling (Gli1 mRNA) in C3H10T1/2 cells; assay: Down-regulation of endogenous Gli1 mRNA in Hh-dependent C3H10T1/2 cells; format: cell-based, mouse; conditions: Mus musculus
How it was run: (§1)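 Hh pathway activated in C3H10T1/2 cells with exogenous agonist (recombinant Hh ligand or small molecule) alongside inhibitor; Gli1 mRNA measured by qPCR. Concentration-dependent Gli1 reduction also assessed in murine BCC ASZ cells; values mean±SEM, ≥2 experiments in triplicate.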

[2] = test system: Hh signaling (Gli1 mRNA) in ASZ cells; assay: Down-regulation of endogenous Gli1 mRNA in ASZ cells; format: cell-based, murine; conditions: Mus musculus
How it was run: as §1

[3] = test system: HUVEC; assay: HUVEC proliferation (MTS); format: cell-based, human; conditions: Homo sapiens, HUVEC, 72 h, read-out: GI50 (μM) HUVEC, 72 h
How it was run: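 HUVECs seeded at 3,000 cells/well, attached overnight, then treated with varying drug concentrations. Proliferation read by MTS/PMS after 72 h.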

[4] = test system: Gli1 in DAOYs (cultured MB); assay: Down-regulation of Gli1 in DAOY cells; format: cell-based; conditions: Homo sapiens
Source text: Additional analogues have been synthesized and characterized in the assays described above.

[5] = BBB-PAMPA; format: in vitro ADME; conditions: preliminary studies, read-out: apparent permeability (Papp)
Source text: (§2) Each analogue will also be evaluated in assays to develop SPR for the ability of the scaffold to penetrate the BBB and accumulate in the brain. First, a standard BBB-PAMPA assay will be used to predict the ability to passively diffuse across the BBB. In this method, an artificial membrane that has been designed to mimic the BBB is immobilized on a filter between a donor and acceptor compartment. […] For these assays, Madin Darby canine kidney cells (MDCK) are transfected with either P-gp or BCRP and grown to confluence on filter inserts in a transwell apparatus analogous to that used for the PAMPA assay. Analogue (10 μM) is added to either the donor or acceptor compartment and following a 60 min incubation period, compound concentrations in both compartments are quantified via LC/MS/MS. […] The fluorescent dye lucifer yellow will be utilized to ensure membrane integrity in the transporter assays. The BBB-PAMPA assay and both transporter assays will be performed in collaboration with the Sanford-Burnham Exploratory Pharmacology Core Facility.

[6] = biological target: T1, P-gp (Homo sapiens, UniProt P08183); assay: P-gp transporter substrate assay; format: in vitro ADME
T1 construct: expressed in transfected cells; host or cells: Madin Darby canine kidney cells (MDCK)
Source text: as §2

[7] = biological target: T2, BCRP (Homo sapiens, UniProt Q9UNQ0); assay: BCRP transporter substrate assay; format: in vitro ADME
T2 construct: expressed in transfected cells; host or cells: Madin Darby canine kidney cells (MDCK)
T2 sequence (Q9UNQ0 1-655): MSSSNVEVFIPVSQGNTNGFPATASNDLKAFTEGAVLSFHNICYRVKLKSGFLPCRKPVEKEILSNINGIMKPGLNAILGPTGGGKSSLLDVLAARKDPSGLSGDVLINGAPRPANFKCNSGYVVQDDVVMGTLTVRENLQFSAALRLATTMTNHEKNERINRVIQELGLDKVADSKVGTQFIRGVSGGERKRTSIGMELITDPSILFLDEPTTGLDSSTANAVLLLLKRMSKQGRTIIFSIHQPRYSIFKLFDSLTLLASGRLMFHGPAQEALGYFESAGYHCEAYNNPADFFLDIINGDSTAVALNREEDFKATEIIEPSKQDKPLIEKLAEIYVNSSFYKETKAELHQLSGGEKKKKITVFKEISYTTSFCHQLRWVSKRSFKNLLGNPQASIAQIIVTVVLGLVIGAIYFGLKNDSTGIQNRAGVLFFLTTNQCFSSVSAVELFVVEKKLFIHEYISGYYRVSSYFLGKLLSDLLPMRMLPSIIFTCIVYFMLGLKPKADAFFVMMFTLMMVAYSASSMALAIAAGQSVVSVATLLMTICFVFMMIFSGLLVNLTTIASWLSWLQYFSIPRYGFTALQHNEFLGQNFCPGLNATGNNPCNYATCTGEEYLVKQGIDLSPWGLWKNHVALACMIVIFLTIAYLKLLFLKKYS
Source text: as §2

T1 sequence (P08183 whole entry): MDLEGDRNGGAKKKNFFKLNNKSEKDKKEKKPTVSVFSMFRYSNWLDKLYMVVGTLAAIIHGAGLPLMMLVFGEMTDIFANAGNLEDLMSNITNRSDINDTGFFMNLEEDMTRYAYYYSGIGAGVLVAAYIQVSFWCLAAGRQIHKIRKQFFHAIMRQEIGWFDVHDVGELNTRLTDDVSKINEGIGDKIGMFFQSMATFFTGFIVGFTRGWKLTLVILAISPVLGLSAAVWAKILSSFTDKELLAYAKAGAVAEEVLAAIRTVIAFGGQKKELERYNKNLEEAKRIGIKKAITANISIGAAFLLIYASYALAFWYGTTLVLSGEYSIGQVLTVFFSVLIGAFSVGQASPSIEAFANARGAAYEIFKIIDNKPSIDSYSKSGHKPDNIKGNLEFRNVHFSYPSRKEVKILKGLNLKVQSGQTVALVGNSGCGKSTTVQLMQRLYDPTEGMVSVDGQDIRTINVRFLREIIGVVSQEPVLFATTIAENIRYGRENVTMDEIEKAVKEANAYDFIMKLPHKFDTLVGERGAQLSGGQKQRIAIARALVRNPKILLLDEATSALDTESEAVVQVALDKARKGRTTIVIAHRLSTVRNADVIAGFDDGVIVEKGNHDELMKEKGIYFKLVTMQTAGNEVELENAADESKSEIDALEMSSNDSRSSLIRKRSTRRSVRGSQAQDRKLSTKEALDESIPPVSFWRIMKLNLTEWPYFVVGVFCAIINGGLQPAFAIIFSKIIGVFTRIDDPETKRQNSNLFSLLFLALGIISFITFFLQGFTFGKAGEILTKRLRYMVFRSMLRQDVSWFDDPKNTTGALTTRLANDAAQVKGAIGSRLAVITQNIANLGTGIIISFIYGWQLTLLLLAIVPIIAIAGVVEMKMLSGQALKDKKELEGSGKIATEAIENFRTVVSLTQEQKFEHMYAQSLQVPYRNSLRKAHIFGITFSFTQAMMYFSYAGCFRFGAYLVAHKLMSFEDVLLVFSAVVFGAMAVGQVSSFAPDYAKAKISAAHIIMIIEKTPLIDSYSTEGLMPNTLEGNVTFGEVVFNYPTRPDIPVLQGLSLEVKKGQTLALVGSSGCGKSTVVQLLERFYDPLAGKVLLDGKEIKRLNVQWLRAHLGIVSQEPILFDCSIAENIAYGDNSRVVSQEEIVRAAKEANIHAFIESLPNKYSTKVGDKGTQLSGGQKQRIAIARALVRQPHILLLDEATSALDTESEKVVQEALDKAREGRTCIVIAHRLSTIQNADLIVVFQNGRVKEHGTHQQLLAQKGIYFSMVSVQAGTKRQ

## CC[C@@H]([C@H](C)O)n1ncn(-c2ccc(N3CCN(c4ccc(OC[C@@H]5CO[C@@](Cn6cncn6)(c6ccc(F)cc6F)C5)cc4)CC3)cc2)c1=O [PSZ, posaconazole, reference compound]
[1]; C3H 10T1/2, 24 h, read-out: IC50 (μM) C3H10T1/2, 24 hr incubation
  IC50: 0.14 ± 0.02 µM
[1]; C3H 10T1/2, read-out: % Hh inhibition
  inhibition at 1 µM: 95%
[1]; C3H 10T1/2, read-out: IC50 (μM) Gli1-C3Hs
  IC50: 0.01 ± 0.005 µM
[1]; C3H 10T1/2, read-out: IC50 down-regulation of Gli1, C3H10T1/2 cells
  IC50: 0.01 µM
[2]; 48 h, read-out: IC50 (μM) ASZ, 48 hr incubation
  IC50: 0.54 ± 0.05 µM
[2]; read-out: IC50 (μM) Gli1-ASZs
  IC50: 0.54 ± 0.05 µM
[3]
  GI50: 1.6 ± 0.02 µM
[4]
  IC50: 0.89 ± 0.1 µM
[5]
  Papp at 30 min, 10 μM: 46 ×10⁻⁶ cm/s
[6]
  substrate of P-gp: not a substrate
[7]
  substrate of BCRP: not a substrate

Reference: patent US9650365B2 (UNIVERSITY OF CONNECTICUT, priority 2014, dated 2017)
